Experimental data as given in ChEMBL document CHEMBL1128726, “N-substituted oxazolo[5,4-b]pyridin-2(1H)-ones: a new class of non-opiate antinociceptive agents” (J Med Chem, 1995).

What was measured:
Rattus norvegicus [1] = assay: Antiinflammatory activity was evaluated by carrageenan induced rat paw edema volume was determined.; type: functional
Rattus norvegicus [2] = organism: Rattus norvegicus; assay: animal or person; details: po, read-out: Inhibition
Description: Antiinflammatory activity was evaluated by carrageenan induced rat paw edema (6 rats/ dose) at peroral dose of 10 mg/kg by inhibition of Prostaglandin E2 (PGE2).

Rattus norvegicus [3] = assay: Antiinflammatory activity was evaluated by carrageenan induced rat paw edema (6 rats/ dose) at peroral dose of 10 mg/kg by inhibition of leukotriene B4 (LTB4) synthesis.; type: functional; details: route oral
Mus musculus [4] = assay: Inhibition of phenylquinone induced writhing in mice following 50 mg/kg p.o.; type: functional; details: route oral
Mus musculus [5] = organism: Mus musculus; assay: Analgesic activity against phenylquinone induced writhing in mice compared to that of aspirin.; type: functional
Rattus norvegicus [6] = assay: Inhibition of acetic acid induced writhing in rat following 50 mg/kg p.o.; type: functional; details: route oral
Rattus norvegicus [7] = organism: Rattus norvegicus; assay: Analgesic activity against acetic acid-induced writhing in the rat compared to that of aspirin.; type: functional
Rattus norvegicus [8] = assay: Antiinflammatory activity was evaluated by carrageenan induced rat paw edema (6 rats/ dose) at peroral dose of 50 mg/kg by inhibition of Prostaglandin E2 (PGE2).; type: functional; details: route oral
Rattus norvegicus [9] = assay: % inhibition of acetic acid-induced writhing in rat at 1.5 mg/kg peroral dose, 120 min postdose(5 rats per compound at each time).p<0.05; type: functional; details: 2 h, route oral
Rattus norvegicus [10] = assay: Antiinflammatory activity was evaluated by carrageenan induced rat paw edema (6 rats/ dose) at peroral dose of 50 mg/kg and percent of variation of edema volume was determined.; type: functional; details: route oral
Rattus norvegicus [11] = assay: % inhibition of acetic acid-induced writhing in rat at 1.5 mg/kg peroral dose, 60 min postdose(5 rats per compound at each time).p<0.01; type: functional; details: 1 h, route oral
Mus musculus [12] = organism: Mus musculus; assay: Antinociceptive potency against phenylquinone (PBQ)-induced writhing in mice (8 mice/dose); type: functional
Rattus norvegicus [13] = assay: % inhibition of acetic acid-induced writhing in rat at 1.5 mg/kg peroral dose, 180 min postdose(5 rats per compound at each time).p<0.05; type: functional; details: 3 h, route oral
Rattus norvegicus [14] = organism: Rattus norvegicus; assay: Antinociceptive potency against acetic acid -induced writhing in rat (8 rats/dose); type: functional
Rattus norvegicus [15] = assay: % inhibition of acetic acid-induced writhing in rat at 1.5 mg/kg peroral dose, 360 min postdose(5 rats per compound at each time); type: functional; details: 6 h, route oral
Rattus norvegicus [16] = assay: Antiinflammatory activity was evaluated by carrageenan induced rat paw edema (6 rats/ dose) at peroral dose of 50 mg/kg by inhibition of leukotriene B4 (LTB4) synthesis.; type: functional; details: route oral
Mus musculus [17] = assay: Mortality threshold doses was determined from orientative acute toxicity Irwin test (3 mice/dose) by peroral administration. Value in parentheses represent the percent mortality.; type: organism-based; details: in vivo, po
Rattus norvegicus [18] = assay: % inhibition of acetic acid-induced writhing in rat at 1.5 mg/kg peroral dose, 15 min postdose(5 rats per compound at each time). p<0.05; type: functional; details: 0.25 h, route oral
Mus musculus [19] = assay: Analgesic activity was evaluated in mice by hot plate assay and percent change in foot licking latency was determined at 32 mg/kg i.p. dose. p<0.05; type: functional; details: route intraperitoneal
Rattus norvegicus [20] = assay: % inhibition of acetic acid-induced writhing in rat at 1.5 mg/kg peroral dose, 30 min postdose(5 rats per compound at each time).p<0.001; type: functional; details: 0.5 h, route oral
Mus musculus [21] = assay: Analgesic activity was evaluated in mice by hot plate assay and percent change in foot licking latency was determined at 8 mg/kg i.p. dose; type: functional; details: route intraperitoneal
Mus musculus [22] = assay: Mortality threshold doses was determined from orientative acute toxicity Irwin test (3 mice/dose) by peroral administration; type: organism-based; details: in vivo, po
Rattus norvegicus [23] = assay: Antiinflammatory activity was evaluated by carrageenan induced rat paw edema (6 rats/ dose) at peroral dose of 100 mg/kg by inhibition of Prostaglandin E2 (PGE2).; type: functional; details: route oral
Rattus norvegicus [24] = assay: Antiinflammatory activity was evaluated by carrageenan induced rat paw edema (6 rats/ dose) at peroral dose of 100 mg/kg by inhibition of leukotriene B4 (LTB4) synthesis.; type: functional; details: route oral
Rattus norvegicus [25] = assay: Antiinflammatory activity was evaluated by carrageenan induced rat paw edema (6 rats/ dose) at peroral dose of 200 mg/kg by inhibition of Prostaglandin E2 (PGE2).; type: functional; details: route oral
Rattus norvegicus [26] = assay: Antiinflammatory activity was evaluated by carrageenan induced rat paw edema (6 rats/ dose) at peroral dose of 200 mg/kg and percent of variation of edema volume was determined.; type: functional; details: route oral
Rattus norvegicus [27] = assay: Antiinflammatory activity was evaluated by carrageenan induced rat paw edema (6 rats/ dose) at peroral dose of 200 mg/kg by inhibition of leukotriene B4 (LTB4) synthesis.; type: functional; details: route oral

SMILES | inhibition in vivo at 50 mg/kg (Mus musculus [4]) [%] | Activity ratio (Mus musculus [5]) | inhibition in vivo at 50 mg/kg (Rattus norvegicus [6]) [%] | Activity ratio (Rattus norvegicus [7]) | ED50 (Mus musculus [12]) [mg/kg] | ED50 (Rattus norvegicus [14]) [mg/kg] | also measured
COc1ccc2c(c1)c(CC(=O)O)c(C)n2C(=O)c1ccc(Cl)cc1 [INDOMETHACIN] | – | – | – | – | – | – | Change in volume (Rattus norvegicus [1]): -57%; inhibition in vivo at 10 mg/kg (Rattus norvegicus [2]): 100%; inhibition in vivo at 10 mg/kg (Rattus norvegicus [3]): 18%
O=c1oc2ncccc2n1CCCN1CCOCC1 | 48 | 0.9 | 0 | 0 | – | – | –
O=c1oc2ncccc2n1CCCN1CCN(c2ccc(F)cc2)CC1 | 85 | 1.6 | 79 | 2 | 5.6 | 0.5 | inhibition in vivo at 50 mg/kg (Rattus norvegicus [8]): -5%; inhibition in vivo at 1.5 mg/kg (Rattus norvegicus [9]): 63%; Change in volume (Rattus norvegicus [10]): -11%; inhibition in vivo at 1.5 mg/kg (Rattus norvegicus [11]): 50%; inhibition in vivo at 1.5 mg/kg (Rattus norvegicus [13]): 44%; inhibition in vivo at 1.5 mg/kg (Rattus norvegicus [15]): 4%; inhibition in vivo at 50 mg/kg (Rattus norvegicus [16]): 16%; Mortality threshold (Mus musculus [17]): 1024 mg/kg; inhibition in vivo at 1.5 mg/kg (Rattus norvegicus [18]): 47%; Change in foot-licking latency (Mus musculus [19]): 87%; inhibition in vivo at 1.5 mg/kg (Rattus norvegicus [20]): 65%
O=c1oc2ncccc2n1CCCCN1CCN(c2ccc(F)cc2)CC1 | 100 | 1.9 | 87 | 2.2 | 2.9 | 0.5 | inhibition in vivo at 50 mg/kg (Rattus norvegicus [8]): 2%; Variation of edema volume (Rattus norvegicus [1]): -25%; Change in foot-licking latency (Mus musculus [21]): 113%; inhibition in vivo at 50 mg/kg (Rattus norvegicus [16]): 0%; Mortality threshold (Mus musculus [22]): 512 mg/kg
O=c1oc2ncccc2n1CCN1CCN(Cc2ccccc2)CC1 | 43 | 0.9 | 48 | 0.7 | – | – | –
COc1ccc(N2CCN(CCCn3c(=O)oc4ncccc43)CC2)cc1 | 35 | 0.7 | 14 | 0.2 | – | – | –
O=c1oc2ncccc2n1CCCN1CCN(c2ccccc2)CC1 | 98 | 1.4 | 92 | 1.3 | 12.7 | 3.3 | Change in volume (Rattus norvegicus [1]): -20%; inhibition in vivo at 100 mg/kg (Rattus norvegicus [23]): 5%; Change in foot-licking latency (Mus musculus [19]): 30%; Mortality threshold (Mus musculus [22]): > 1024 mg/kg; inhibition in vivo at 100 mg/kg (Rattus norvegicus [24]): 35%
O=C1CCN(c2ccccc2)N1 [PHENIDONE] | – | – | – | – | – | – | inhibition in vivo at 200 mg/kg (Rattus norvegicus [25]): 100%; Change in volume (Rattus norvegicus [26]): -68%; inhibition in vivo at 200 mg/kg (Rattus norvegicus [27]): 100%
O=c1oc2ncccc2n1CCN1CCC(c2ccccc2)CC1 | 9 | 0.1 | 50 | 0.7 | – | – | –
O=c1oc2ncccc2n1CCN1CCN(c2cccc(C(F)(F)F)c2)CC1 | 10 | 0.1 | 11 | 0.2 | – | – | –
O=c1oc2ncccc2n1CCN1CCN(c2ccccc2)CC1 | – | – | 74 | – | 25 | 13.6 | –
O=c1oc2ncccc2n1CCN1CCCC1 | 55 | 0.8 | 55 | 0.8 | – | – | –
O=c1oc2ncccc2n1CCCCN1CCC(c2ccccc2)CC1 | 0 | 0 | 59 | 1.5 | – | – | –
O=c1oc2ncccc2n1CCCCCCN1CCN(c2ccc(F)cc2)CC1 | 100 | 1.4 | 100 | 1.6 | 7.7 | 14.2 | –
O=c1oc2ncccc2n1CCCCCN1CCN(c2ccc(F)cc2)CC1 | 100 | 1.4 | 100 | 1.6 | 11.4 | 30.4 | –
O=c1oc2ncccc2n1CCCCN1CCN(c2ccccc2)CC1 | 91 | 1.3 | 96 | 1.4 | 27 | 13.6 | –
O=c1oc2ncccc2n1CCN1CCN(c2cccc3ccccc23)CC1 | 33 | 0.7 | 6 | 0.1 | – | – | –
O=c1oc2ncccc2n1CCN1CCN(c2ccc(F)cc2)CC1 | 83 | 1.2 | 85 | 1.2 | 6.7 | 3.6 | –
O=C(CCn1c(=O)oc2ncccc21)N1CCN(c2ccc(F)cc2)CC1 | 25 | 0.4 | 43 | 0.5 | – | – | –
O=c1oc2ncccc2n1CCCN1CCN(c2cccc3ccccc23)CC1 | 44 | 0.9 | 0 | 0 | – | – | –
O=c1oc2ncccc2n1CCCN1CCN(Cc2ccccc2)CC1 | 14 | 0.3 | 12 | 0.2 | – | – | –
CC(CCn1c(=O)oc2ncccc21)N1CCN(c2ccc(F)cc2)CC1 (stereo not given) | 63 | 1.3 | 51 | 0.7 | – | – | –
CC(CN1CCN(c2ccc(F)cc2)CC1)Cn1c(=O)oc2ncccc21 (stereo not given) | 99 | 1.4 | 100 | 1.6 | 24.6 | 20.5 | –
COc1ccccc1N1CCN(CCn2c(=O)oc3ncccc32)CC1 | 52 | 0.8 | 53 | 0.8 | – | – | –
